Laboratory results reported in patent publication US20110212891A1 (MSD K.K., priority 2008, published 2011).

These compounds were tested against T1, Human DGAT1 (Homo sapiens, UniProt O75907) (assay: DGAT1 Inhibitory Activity Test ([14C]-oleoyl-CoA, DGAT1-expressed yeast membrane fraction)). Conditions: Table 5, room temperature, 30 minutes.
T1 construct: made in house; host or cells: Pichia pastoris (printed 'Pichia pastris'), vector pPICZA; the membrane fraction served as enzyme source
T1 sequence (O75907 1-488): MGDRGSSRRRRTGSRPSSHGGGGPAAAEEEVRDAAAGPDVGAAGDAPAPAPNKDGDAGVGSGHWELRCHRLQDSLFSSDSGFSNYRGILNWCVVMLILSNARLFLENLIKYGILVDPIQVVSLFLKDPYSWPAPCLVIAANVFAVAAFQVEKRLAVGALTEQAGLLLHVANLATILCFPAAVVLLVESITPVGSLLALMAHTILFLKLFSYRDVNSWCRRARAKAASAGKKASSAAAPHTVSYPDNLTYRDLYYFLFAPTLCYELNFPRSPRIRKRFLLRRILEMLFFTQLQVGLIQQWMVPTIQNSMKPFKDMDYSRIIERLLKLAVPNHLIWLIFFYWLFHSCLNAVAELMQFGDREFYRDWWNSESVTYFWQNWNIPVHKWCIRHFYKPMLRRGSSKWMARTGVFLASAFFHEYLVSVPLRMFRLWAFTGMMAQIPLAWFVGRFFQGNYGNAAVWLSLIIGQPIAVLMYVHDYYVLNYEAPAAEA
Assay type: biochemical
Protocol: Human DGAT1 genes were amplified by PCR using primers described below from human cDNA library (Clontech).
The amplified human DGAT1 genes were introduced into a yeast expression vector pPICZA (Invitrogen). The resultant expression plasmid was introduced into a yeast (Pichia pastris) by electroporation to produce a recombinant yeast. The recombination yeast was cultured in the presence of 0,5% methanol for 72 hours, and the cells were crushed using glass beads in 10 mM Tris pH 7.5, 250 mM sucrose and 1 mM EDTA, followed by adjusting the membrane fraction by centrifugation to use the adjusted membrane fraction as an enzyme source.
To the reaction liquid having the following composition: 100 mM Tris pH 7.5, 100 mM MgCl2, 100 mM sucrose, 40 μM dioelin, 15 μm [^14C]-oleoyl-CoA, 0.25 μg of test substance, DGAT1-expressed yeast membrane fraction, was added, and the mixture having a volume of 100 μl was incubated at room temperature for 30 minutes. To the reaction liquid, 100 μl of 2-propanol/heptan/H2O (80:20:2) was added, the mixture was stirred well, followed by adding 200 μl of heptane and further stirring the mixture. After centrifugation, the heptane layer was collected, ethanol/0.1N NaOH/H2O (50:5:45) was added, the mixture was thus stirred, followed by recentrifuging the mixture and collecting the heptane layer. After exsiccation of the obtained heptane layer, 100 μl of Microscint 0 (PerkinElmer) was added, and the radioactivity was measured with a liquid scintillation counter. The inhibitory activity was calculated from the following formula:
Inhibition rate=100−(radioactivity in case of addition of test compound−background)/(radioactivity in case of addition of no test compound−background)×100
wherein the background means the radioactivity in case of addition of no membrane fraction.

First: O=C1C(NC(=O)C2(NC(=O)C3(C(F)(F)F)CC3)CC2)CCc2cc(OC(F)(F)F)ccc2N1Cc1cc(C(F)(F)F)cc(C(F)(F)F)c1 (single isomer, unassigned) [Example 41 Enantiomer A, N-[1-({[1-[3,5-bis(trifluoromethyl)benzyl]-2-oxo-7-(trifluoromethoxy)-2,3,4,5-tetrahydro-1H-1-benzazepin-3-yl]amino}carbonyl)cyclopropyl]-1-(trifluoromethyl)cyclopropane carboxyamide]
Second: O=C(NC1(C(=O)N[C@@H]2CC(=O)c3ccccc3N(Cc3cc(C(F)(F)F)cc(C(F)(F)F)c3)C2=O)CC1)c1ccc(F)c(F)n1 [Example 8]
The IC50 of the first is 1.6-fold higher: 137 nM for the first, 85 nM for the second. The second is the more potent here.

Compared with `O=C1C(NC(=O)C2(NC(=O)C3(C(F)(F)F)CC3)CC2)CCc2cc(OC(F)(F)F)ccc2N1Cc1cc(C(F)(F)F)cc(C(F)(F)F)c1` (single isomer, unassigned) [Example 41 Enantiomer B, N-[1-({[1-[3,5-bis(trifluoromethyl)benzyl]-2-oxo-7-(trifluoromethoxy)-2,3,4,5-tetrahydro-1H-1-benzazepin-3-yl]amino}carbonyl)cyclopropyl]-1-(trifluoromethyl)cyclopropane carboxyamide], `CC(C)(C)OC(=O)NC1(C(=O)NC2CCc3ccccc3N(Cc3ccc(OC(F)(F)F)cc3)C2=O)CCC1` (single isomer, unassigned) [Example 46 Enantiomer A, tert-butyl{1-[({2-oxo-1-[4-(trifluoromethoxy)benzyl]-2,3,4,5-tetrahydro-1H-1-benzazepin-3-yl}amino)carbonyl]cyclobutyl}carbamate] is 4.5-fold lower in IC50: 858 nM for the first, 189 nM for the second.

Going from `CC(C)(C)OC(=O)NC1(C(=O)NC2CCc3ccccc3N(Cc3ccc(OC(F)(F)F)cc3)C2=O)CCC1` (single isomer, unassigned) [Example 46 Enantiomer B, tert-butyl{1-[({2-oxo-1-[4-(trifluoromethoxy)benzyl]-2,3,4,5-tetrahydro-1H-1-benzazepin-3-yl}amino)carbonyl]cyclobutyl}carbamate] to `CC(C)(C)OC(=O)NC1(C(=O)NC2CCc3ccccc3N(Cc3ccc(OC(F)(F)F)cc3)C2=O)CCCC1` (single isomer, unassigned) [Example 47 Enantiomer A], the IC50 rises from 14 nM to 153 nM (11-fold). The first is the more potent here.

`CC(C)(C)OC(=O)NC1(C(=O)NC2CCc3ccccc3N(Cc3ccc(OC(F)(F)F)cc3)C2=O)CCCC1` (single isomer, unassigned) [Example 47 Enantiomer B] and `CC(C)(C)OC(=O)NC1(C(=O)N[C@H]2CC(=O)c3ccccc3N(Cc3ccc(-c4ccccc4)cc3)C2=O)CC1` [Example 21] are within 1.5-fold of each other in IC50: 21 nM for the first, 24 nM for the second.

Same assay, conditions: Table 6, room temperature, 30 minutes

Compared with `O=C(NC1(C(=O)N[C@@H]2CC(=O)c3ccccc3N(Cc3cc(C(F)(F)F)cc(C(F)(F)F)c3)C2=O)CC1)c1nccs1` [Example 50, N-{1-[({(3R)-1-[3,5-bis(trifluoromethyl)benzyl]-2,5-dioxo-2,3,4,5-tetrahydro-1H-1-benzazepin-3-yl}amino)carbonyl}cyclopropyl}-1,3-thiazole-2-carboxamide], `O=C(NC1(C(=O)N[C@@H]2CC(=O)c3ccccc3N(Cc3cc(C(F)(F)F)cc(C(F)(F)F)c3)C2=O)CCC1)c1nccs1` [Example 52, N-{1-[({(3R)-1-[3,5-bis(trifluoromethyl)benzyl]-2,5-dioxo-2,3,4,5-tetrahydro-1H-1-benzazepin-3-yl}amino)carbonyl]cyclobutyl}-1,3-thiazole-2-carboxamide] is 3.9-fold higher in IC50: 65 nM for the first, 253 nM for the second. The first is the more potent here.

Compared with `CC(C)(C)OC(=O)NC1(C(=O)N[C@@H]2CC(=O)c3ccccc3N(Cc3cc(C(F)(F)F)cc(C(F)(F)F)c3)C2=O)CCC1` [Example 51, tert-butyl{1-[({(3R)-1-[3,5-bis(trifluoromethyl)benzyl]-2,5-dioxo-2,3,4,5-tetrahydro-1H-1-benzazepin-3-yl}amino)carbonyl]cyclobutyl}carbamate], `O=C(NC1(C(=O)N[C@@H]2CC(=O)c3ccccc3N(Cc3cc(C(F)(F)F)cc(C(F)(F)F)c3)C2=O)CCC1)c1ccc(F)cc1` [Example 53, N-{1-[({(3R)-1-[3,5-bis(trifluoromethyl)benzyl]-2,5-dioxo-2,3,4,5-tetrahydro-1H-1-benzazepin-3-yl}amino)carbonyl]cyclobutyl}-4-fluorobenzamide] is 1.9-fold higher in IC50: 41 nM for the first, 77 nM for the second.
